From patent publication US8415469B2, “Compounds and methods for kinase modulation, and indications therefor” (Plexxikon Inc., priority 2005, dated 2013)

Key:
Type in all cases: biochemical
Ret = target: T1, Ret (Homo sapiens, UniProt P07949); assay: AlphaScreen kinase assay, Ret; settings: read-out: IC50, activity toward kinase Ret
T1 construct: P1378.pET-SF BI-PTP RET H661-R1012 HIS; made in house
T1 sequence (P07949 with tags, fused parts or gaps): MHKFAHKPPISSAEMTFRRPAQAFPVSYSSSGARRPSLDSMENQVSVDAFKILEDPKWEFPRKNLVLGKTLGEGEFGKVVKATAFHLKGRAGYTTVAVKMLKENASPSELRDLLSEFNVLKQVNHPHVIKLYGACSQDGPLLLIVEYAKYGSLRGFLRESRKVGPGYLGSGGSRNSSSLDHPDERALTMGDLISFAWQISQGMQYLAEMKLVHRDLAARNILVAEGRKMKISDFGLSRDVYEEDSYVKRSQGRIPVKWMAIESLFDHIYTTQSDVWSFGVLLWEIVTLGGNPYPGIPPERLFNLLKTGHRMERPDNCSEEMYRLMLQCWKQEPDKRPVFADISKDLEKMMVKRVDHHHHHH

Kdr = target: T2, Kdr (Homo sapiens, UniProt P35968); assay: Z'-Lyte FRET kinase assay (Invitrogen), Kdr; settings: read-out: IC50, activity toward kinase Kdr
T2 construct: purchased Invitrogen (assay run by Invitrogen)
T2 sequence (P35968 20-1356): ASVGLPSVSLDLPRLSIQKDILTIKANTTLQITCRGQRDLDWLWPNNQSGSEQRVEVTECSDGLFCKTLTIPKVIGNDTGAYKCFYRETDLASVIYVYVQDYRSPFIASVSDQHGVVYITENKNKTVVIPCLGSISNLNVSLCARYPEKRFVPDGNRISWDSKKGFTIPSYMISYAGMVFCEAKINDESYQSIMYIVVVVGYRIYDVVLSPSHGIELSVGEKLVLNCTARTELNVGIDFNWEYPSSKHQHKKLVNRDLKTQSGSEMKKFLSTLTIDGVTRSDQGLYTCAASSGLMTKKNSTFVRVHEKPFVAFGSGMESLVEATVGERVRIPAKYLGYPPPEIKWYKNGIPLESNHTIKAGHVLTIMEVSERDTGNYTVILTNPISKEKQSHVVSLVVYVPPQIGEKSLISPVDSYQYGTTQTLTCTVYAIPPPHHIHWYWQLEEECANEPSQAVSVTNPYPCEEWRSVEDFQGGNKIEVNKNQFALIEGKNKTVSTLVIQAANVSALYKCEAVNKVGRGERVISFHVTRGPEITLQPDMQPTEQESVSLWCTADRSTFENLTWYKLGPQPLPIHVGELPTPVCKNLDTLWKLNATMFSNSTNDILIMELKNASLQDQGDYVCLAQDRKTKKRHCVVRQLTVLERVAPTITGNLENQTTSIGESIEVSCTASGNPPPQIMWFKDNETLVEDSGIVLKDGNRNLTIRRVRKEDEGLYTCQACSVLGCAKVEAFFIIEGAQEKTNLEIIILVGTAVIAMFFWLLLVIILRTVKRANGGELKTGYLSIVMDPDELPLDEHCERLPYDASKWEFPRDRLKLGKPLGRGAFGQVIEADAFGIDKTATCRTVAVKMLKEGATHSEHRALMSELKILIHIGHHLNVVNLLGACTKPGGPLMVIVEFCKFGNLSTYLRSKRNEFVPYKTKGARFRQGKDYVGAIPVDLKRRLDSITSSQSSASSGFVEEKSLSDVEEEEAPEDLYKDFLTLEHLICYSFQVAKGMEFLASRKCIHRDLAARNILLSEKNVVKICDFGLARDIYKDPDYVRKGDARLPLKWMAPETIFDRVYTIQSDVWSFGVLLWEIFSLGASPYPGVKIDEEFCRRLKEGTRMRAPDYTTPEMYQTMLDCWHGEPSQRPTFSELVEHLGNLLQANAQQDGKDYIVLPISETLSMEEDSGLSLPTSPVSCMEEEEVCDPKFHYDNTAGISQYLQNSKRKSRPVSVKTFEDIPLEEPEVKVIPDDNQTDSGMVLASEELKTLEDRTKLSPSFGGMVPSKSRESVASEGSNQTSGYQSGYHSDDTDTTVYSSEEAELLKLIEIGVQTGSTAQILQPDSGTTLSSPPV

Kit = target: T3, Kit (Homo sapiens, UniProt P10721); assay: AlphaScreen kinase assay, Kit; settings: read-out: IC50, activity toward kinase Kit
T3 construct: P1332.N6 BI PTP KIT M552-K948-X COD; His6 (N); made in house; host or cells: E. coli (PTP1B co-expressed)
T3 sequence (P10721 with tags, fused parts or gaps): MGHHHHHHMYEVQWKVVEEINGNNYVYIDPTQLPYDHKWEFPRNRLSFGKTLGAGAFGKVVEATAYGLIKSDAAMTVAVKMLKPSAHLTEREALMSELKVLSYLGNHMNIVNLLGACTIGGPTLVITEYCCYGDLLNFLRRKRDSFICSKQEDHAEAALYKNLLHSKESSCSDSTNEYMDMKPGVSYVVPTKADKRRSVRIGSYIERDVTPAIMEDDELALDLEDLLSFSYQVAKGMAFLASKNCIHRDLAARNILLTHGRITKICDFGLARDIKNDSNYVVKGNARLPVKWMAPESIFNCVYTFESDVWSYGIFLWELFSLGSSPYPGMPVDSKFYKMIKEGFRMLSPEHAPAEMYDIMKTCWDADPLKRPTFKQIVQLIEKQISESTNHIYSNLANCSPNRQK

B-Raf V600E = target: T4, B-Raf V600E (Homo sapiens, UniProt P15056, V600E); assay: AlphaScreen kinase assay, B-Raf V600E; settings: read-out: IC50, activity toward kinase B-Raf V600E
T4 construct: P4254. pFastBacBD-CDC37 BRAF D437-K722-X, V600E; His6 with pFastBac HT leader (TEV site) (N); made in house; host or cells: Sf9 (baculovirus; chaperone CDC37 co-expressed)
T4 sequence (P15056 with tags, fused parts or gaps V600E): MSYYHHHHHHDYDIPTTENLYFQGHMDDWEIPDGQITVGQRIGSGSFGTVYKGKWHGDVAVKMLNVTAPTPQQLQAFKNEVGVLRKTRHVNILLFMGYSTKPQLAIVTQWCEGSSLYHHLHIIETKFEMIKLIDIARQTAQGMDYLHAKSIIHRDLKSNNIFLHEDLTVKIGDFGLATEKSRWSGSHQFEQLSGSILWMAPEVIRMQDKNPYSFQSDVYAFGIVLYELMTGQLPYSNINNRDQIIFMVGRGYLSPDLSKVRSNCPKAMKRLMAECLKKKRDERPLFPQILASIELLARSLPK

Flt1 = target: T5, Flt1 (Homo sapiens, UniProt P17948); assay: AlphaScreen kinase assay, Flt1; settings: read-out: IC50, activity toward kinase Flt1
T5 construct: P1826.pETN6 BI-PTP FLT1 M799-D1165-X WT; His6 (N); made in house; host or cells: E. coli (PTP1B co-expressed)
T5 sequence (P17948 with tags, fused parts or gaps): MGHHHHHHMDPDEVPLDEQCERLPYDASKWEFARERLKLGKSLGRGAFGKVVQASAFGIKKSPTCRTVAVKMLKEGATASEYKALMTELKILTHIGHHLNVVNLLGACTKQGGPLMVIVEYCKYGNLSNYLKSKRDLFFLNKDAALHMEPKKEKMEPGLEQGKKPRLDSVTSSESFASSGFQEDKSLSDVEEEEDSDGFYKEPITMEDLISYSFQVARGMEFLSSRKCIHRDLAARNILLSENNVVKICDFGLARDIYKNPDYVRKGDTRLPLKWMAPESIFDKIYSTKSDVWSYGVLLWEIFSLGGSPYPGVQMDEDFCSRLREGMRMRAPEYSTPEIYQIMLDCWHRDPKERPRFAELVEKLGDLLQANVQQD

c-Raf-1 = target: T6, c-Raf-1 (Homo sapiens, UniProt P04049); assay: AlphaScreen kinase assay, c-Raf-1; settings: read-out: IC50, activity toward kinase c-Raf-1
T6 construct: purchased Upstate Biotechnology
T6 sequence (P04049 whole entry): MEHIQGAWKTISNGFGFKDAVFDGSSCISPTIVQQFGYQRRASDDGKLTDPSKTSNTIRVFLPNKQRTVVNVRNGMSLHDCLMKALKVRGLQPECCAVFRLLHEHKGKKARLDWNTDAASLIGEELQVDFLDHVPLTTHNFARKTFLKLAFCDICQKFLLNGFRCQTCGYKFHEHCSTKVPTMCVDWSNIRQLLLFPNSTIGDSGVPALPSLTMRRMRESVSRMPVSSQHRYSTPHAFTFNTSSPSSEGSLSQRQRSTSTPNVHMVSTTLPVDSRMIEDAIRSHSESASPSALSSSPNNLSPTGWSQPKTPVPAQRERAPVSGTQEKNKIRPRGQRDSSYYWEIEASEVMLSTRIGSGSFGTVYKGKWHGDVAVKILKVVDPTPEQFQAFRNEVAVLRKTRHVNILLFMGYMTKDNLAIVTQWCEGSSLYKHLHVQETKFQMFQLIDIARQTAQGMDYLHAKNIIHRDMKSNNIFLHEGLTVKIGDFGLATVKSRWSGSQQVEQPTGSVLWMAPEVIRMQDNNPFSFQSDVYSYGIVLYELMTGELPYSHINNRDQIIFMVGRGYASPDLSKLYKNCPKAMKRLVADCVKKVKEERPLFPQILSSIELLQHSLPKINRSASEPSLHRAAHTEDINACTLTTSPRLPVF

B-Raf = target: T7, B-Raf (Homo sapiens, UniProt P15056); assay: AlphaScreen kinase assay, B-Raf; settings: read-out: IC50, activity toward kinase B-Raf
T7 construct: purchased Upstate Biotechnology
T7 sequence (P15056 whole entry): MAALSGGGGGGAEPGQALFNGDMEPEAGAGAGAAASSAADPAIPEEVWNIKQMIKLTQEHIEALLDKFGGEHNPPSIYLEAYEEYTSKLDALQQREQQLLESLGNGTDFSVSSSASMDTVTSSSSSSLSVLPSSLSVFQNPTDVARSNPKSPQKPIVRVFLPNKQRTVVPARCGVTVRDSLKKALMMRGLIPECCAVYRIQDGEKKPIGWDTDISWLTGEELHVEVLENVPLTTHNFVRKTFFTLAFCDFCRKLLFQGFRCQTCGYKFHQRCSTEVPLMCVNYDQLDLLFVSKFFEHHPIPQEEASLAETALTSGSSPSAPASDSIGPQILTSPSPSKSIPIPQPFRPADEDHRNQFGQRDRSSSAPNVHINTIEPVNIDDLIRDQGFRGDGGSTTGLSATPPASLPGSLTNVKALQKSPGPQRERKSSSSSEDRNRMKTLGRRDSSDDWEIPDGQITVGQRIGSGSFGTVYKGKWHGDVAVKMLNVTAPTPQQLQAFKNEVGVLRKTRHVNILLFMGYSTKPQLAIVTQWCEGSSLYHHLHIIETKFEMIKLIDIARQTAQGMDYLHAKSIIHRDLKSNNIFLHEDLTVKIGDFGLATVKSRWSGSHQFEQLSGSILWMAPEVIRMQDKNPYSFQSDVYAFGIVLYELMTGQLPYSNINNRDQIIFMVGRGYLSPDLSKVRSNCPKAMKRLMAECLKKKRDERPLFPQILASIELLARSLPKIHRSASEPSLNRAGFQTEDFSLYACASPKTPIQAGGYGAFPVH

Fms = target: T8, Fms (Homo sapiens, UniProt P07333); assay: AlphaScreen kinase assay, Fms; settings: read-out: IC50, activity toward kinase Fms
T8 construct: purchased Upstate Biotechnology
T8 sequence (P07333 20-972): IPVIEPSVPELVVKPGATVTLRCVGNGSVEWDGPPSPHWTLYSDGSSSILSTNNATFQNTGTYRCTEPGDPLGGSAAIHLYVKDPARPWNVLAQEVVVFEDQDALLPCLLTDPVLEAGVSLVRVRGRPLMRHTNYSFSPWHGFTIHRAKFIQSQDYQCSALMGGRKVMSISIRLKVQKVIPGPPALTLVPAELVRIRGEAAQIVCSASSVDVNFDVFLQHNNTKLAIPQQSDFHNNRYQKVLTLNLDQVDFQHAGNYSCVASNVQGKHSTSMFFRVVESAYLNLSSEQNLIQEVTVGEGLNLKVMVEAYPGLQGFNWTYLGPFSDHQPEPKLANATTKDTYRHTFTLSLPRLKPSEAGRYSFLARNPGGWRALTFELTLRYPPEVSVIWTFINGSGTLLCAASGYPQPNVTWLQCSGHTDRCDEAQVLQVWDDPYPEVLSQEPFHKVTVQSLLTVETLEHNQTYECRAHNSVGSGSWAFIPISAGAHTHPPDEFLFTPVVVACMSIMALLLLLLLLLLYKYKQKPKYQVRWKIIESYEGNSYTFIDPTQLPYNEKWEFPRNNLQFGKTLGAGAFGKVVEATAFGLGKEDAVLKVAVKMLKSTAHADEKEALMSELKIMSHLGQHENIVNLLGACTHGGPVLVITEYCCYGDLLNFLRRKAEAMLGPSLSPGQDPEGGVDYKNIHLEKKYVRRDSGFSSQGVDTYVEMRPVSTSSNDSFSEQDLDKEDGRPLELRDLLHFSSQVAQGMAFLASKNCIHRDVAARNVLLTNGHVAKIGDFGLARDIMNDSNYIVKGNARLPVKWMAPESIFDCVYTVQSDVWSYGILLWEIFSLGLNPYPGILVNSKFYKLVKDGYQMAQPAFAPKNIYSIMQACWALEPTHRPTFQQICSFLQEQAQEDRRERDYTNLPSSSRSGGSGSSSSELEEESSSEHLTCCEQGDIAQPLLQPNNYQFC

FGFR1 = target: T9, FGFR1 (Homo sapiens, UniProt P11362, C488A/C584S); assay: AlphaScreen kinase assay, FGFR1; settings: read-out: IC50, activity toward kinase FGFR
T9 construct: P1351.pET N6 BI-PTP FGFR A458-E765-X C488A, C584S; made in house; host or cells: E. coli (PTP1B co-expressed)
T9 sequence (P11362 458-765 C488A/C584S): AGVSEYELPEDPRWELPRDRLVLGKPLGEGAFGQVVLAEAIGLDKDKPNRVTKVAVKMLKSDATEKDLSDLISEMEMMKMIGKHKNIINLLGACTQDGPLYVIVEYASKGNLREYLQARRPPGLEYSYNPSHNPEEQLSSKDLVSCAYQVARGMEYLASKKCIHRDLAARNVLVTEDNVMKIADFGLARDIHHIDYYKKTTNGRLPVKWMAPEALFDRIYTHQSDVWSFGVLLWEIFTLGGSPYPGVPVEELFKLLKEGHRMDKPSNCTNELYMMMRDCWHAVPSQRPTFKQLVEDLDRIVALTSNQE

Measured: IC50

Cc1cc(C(=O)c2c[nH]c3ncc(-c4cccc(N)c4)cc23)no1 [Compound P-0796]
≤ 10 µM: Ret | Kdr | Kit

COc1cnc2[nH]cc(C(=O)c3c(F)ccc(NS(=O)(=O)c4ccc(C(F)(F)F)cc4)c3F)c2c1 [Compound P-1542, N-[2,4-Difluoro-3-(5-methoxy-1H-pyrrolo[2,3-b]pyridine-3-carbonyl)-phenyl]-4-trifluoromethyl-benzenesulfonamide]
not listed: Ret | Kdr
≤ 10 µM: all other assays above

COC(c1ccc(NCc2ccc(Cl)cc2)nc1)c1c[nH]c2ncc(-c3cccnc3)cc12 (stereo not shown) [Compound P-0939]
≤ 10 µM: B-Raf V600E | c-Raf-1 | Ret | B-Raf

O=C(c1cccc(Cl)c1F)c1c[nH]c2ncc(Br)cc12 [Compound P-0299, (5-Bromo-1H-pyrrolo[2,3-b]pyridin-3-yl)-(3-chloro-2-fluoro-phenyl)-methanone]
≤ 10 µM: Kdr

c1cc2cc(Nc3ccc(N4CCOCC4)cc3)cnc2[nH]1 [Compound P-0981]
≤ 10 µM: B-Raf V600E | Kdr

CC(C)Cc1nc(-c2ccnc3[nH]ccc23)no1 [Compound P-0288]
≤ 10 µM: Kdr

O=[N+]([O-])c1cc(S(=O)(=O)NCc2c[nH]c3ncccc23)sc1Cl [Compound P-0777]
≤ 10 µM: B-Raf V600E | Flt1 | Kdr

Clc1cccc(-c2ccnc3[nH]ccc23)c1 [Compound P-0427]
≤ 10 µM: Kdr | Kit

CS(=O)(=O)Nc1ccc(Cl)c(C(=O)c2c[nH]c3ncc(-c4cccc(S(C)(=O)=O)c4)cc23)c1F [Compound P-0841, N-{4-Chloro-2-fluoro-3-[5-(3-methanesulfonyl-phenyl)-1H-pyrrolo[2,3-b]pyridine-3-carbonyl]-phenyl}-methanesulfonamide]
≤ 10 µM: B-Raf V600E | c-Raf-1 | Ret | B-Raf | FGFR1

O=[N+]([O-])c1cccc(-c2ccnc3[nH]ccc23)c1 [Compound P-0197]
≤ 10 µM: Kdr

Cc1cc(C(=O)c2c[nH]c3nccc(-c4cccc(NS(C)(=O)=O)c4)c23)n(C)n1 [Compound P-0234]
≤ 10 µM: Kdr

O=C(c1c(Cl)ccc(OCC(F)(F)F)c1F)c1c[nH]c2ncc(-c3cccnc3)cc12 [Compound P-1395, [6-Chloro-2-fluoro-3-(2,2,2-trifluoro-ethoxy)-phenyl]-(5-pyridin-3-yl-1H-pyrrolo[2,3-b]pyridin-3-yl)-methanone]
not listed: Ret | Kdr
≤ 10 µM: all other assays above

COc1cc(OC)cc(C(=O)c2c[nH]c3ncccc23)c1 [Compound P-0473]
≤ 10 µM: Kdr | Kit | FGFR1

O=C(c1c(F)ccc(NS(=O)(=O)c2ccc(C(F)(F)F)cc2)c1F)c1c[nH]c2ncc(Cl)cc12 [Compound P-1541, N-[3-(5-Chloro-1H-pyrrolo[2,3-b]pyridine-3-carbonyl)-2,4-difluoro-phenyl]-4-trifluoromethyl-benzenesulfonamide]
not listed: Ret | Kdr | FGFR1
≤ 10 µM: all other assays above

Brc1ccnc2[nH]ccc12 [Compound P-0458]
≤ 10 µM: Kdr

Oc1ccccc1-c1c[nH]c2ncccc12 [Compound P-0182]
≤ 10 µM: Kdr

CCc1cnc2[nH]cc(C(=O)c3cccc(OC)c3)c2c1 [Compound P-0267]
≤ 10 µM: Kdr | FGFR1

COc1ccc(CNc2ccc(Cc3c[nH]c4ncccc34)cn2)cc1 [Compound P-0274]
≤ 10 µM: B-Raf V600E | Flt1 | Kdr | Fms | FGFR1

O=C(c1c(F)ccc(NS(=O)(=O)c2cccc(F)c2)c1F)c1c[nH]c2ncc(Cl)cc12 [Compound P-1583, N-[3-(5-Chloro-1H-pyrrolo[2,3-b]pyridine-3-carbonyl)-2,4-difluoro-phenyl]-3-fluoro-benzenesulfonamide]
not listed: Ret | Kdr
≤ 10 µM: all other assays above

COc1cccc(Cc2c[nH]c3nccc(Br)c23)n1 [Compound P-0339]
≤ 10 µM: Ret | Kdr | FGFR1

CCCS(=O)(=O)Nc1ccc(F)c(C(=O)c2c[nH]c3ncc(N4CCN(C)CC4)cc23)c1F [Compound P-1246, propane-1-sulfonic acid {2,4-difluoro-3-[5-(4-methyl-piperazin-1-yl)-1H-pyrrolo[2,3-b]pyridine-3-carbonyl]-phenyl}-amide]
not listed: Ret | Kdr
≤ 10 µM: all other assays above

c1cc(Cc2c[nH]c3ncccc23)cc(OCCOC2CCCCO2)c1 (stereo not shown) [Compound P-0326]
≤ 10 µM: Flt1 | Kdr | Kit | FGFR1

COc1cccc(C(=O)c2c[nH]c3ncccc23)c1 [Compound P-0168]
≤ 10 µM: Kdr | Kit | FGFR1

CS(=O)(=O)Nc1ccc(Cl)c(C(=O)c2c[nH]c3ncc(Br)cc23)c1F [Compound P-0868, N-[3-(5-Bromo-1H-pyrrolo[2,3-b]pyridine-3-carbonyl)-4-chloro-2-fluoro-phenyl]-methanesulfonamide]
≤ 10 µM: B-Raf V600E | Flt1 | c-Raf-1 | B-Raf | FGFR1

COC(c1ccc(NCc2ccc(Cl)cc2)nc1)c1c[nH]c2ncc(-c3cccc(S(C)(=O)=O)c3)cc12 (stereo not shown) [Compound P-0998]
≤ 10 µM: B-Raf V600E | c-Raf-1 | Ret | B-Raf

COc1cccc(C(O)c2c[nH]c3ncc(Br)cc23)c1F (stereo not shown) [Compound P-0242]
≤ 10 µM: B-Raf V600E | Kdr | FGFR1

COc1ccc(Cc2c[nH]c3nccc(-c4ccsc4)c23)cn1 [Compound P-0289]
≤ 10 µM: Ret | Kdr | FGFR1

O=C(c1cc([N+](=O)[O-])ccc1F)c1c[nH]c2ncccc12 [Compound P-0243]
≤ 10 µM: B-Raf V600E | Kdr

c1coc(-c2c[nH]c3ncccc23)c1 [Compound P-0455]
≤ 10 µM: Flt1 | Kdr

CC(C)CNc1ccc(Cc2c[nH]c3ncccc23)cn1 [Compound P-0192]
≤ 10 µM: B-Raf V600E | Kdr | B-Raf | FGFR1

Fc1ccc(NCc2c[nH]c3ncccc23)cc1 [Compound P-0144]
≤ 10 µM: Kdr

COc1cnc2[nH]cc(C(=O)c3c(F)ccc(NS(=O)(=O)c4cccc(F)c4)c3F)c2c1 [Compound P-1581, N-[2,4-Difluoro-3-(5-methoxy-1H-pyrrolo[2,3-b]pyridine-3-carbonyl)-phenyl]-3-fluoro-benzenesulfonamide]
not listed: Ret | Kdr
≤ 10 µM: all other assays above

COc1ccc(C(O)c2c[nH]c3ncccc23)cc1 (stereo not shown) [Compound P-0268]
≤ 10 µM: Kdr

Cc1ccccc1-c1c[nH]c2ncccc12 [Compound P-0482]
≤ 10 µM: Kdr
